The results in this text go back to patent publication US11034724B2, “Crystalline salt forms of Boc-D-Arg-DMT-Lys-(Boc)-Phe-NH2” (Stealth BioTherapeutics Corp., priority 2017, dated 2021).

Converted amounts (≈) assume the structure as drawn. Read-outs that look alike come from different tables or passages of the source. Non-standard residues stand in square brackets, D forms with d. Residues, ends and D or L forms follow the SMILES beside them. *: point of attachment. Dmt = Cc1cc(O)cc(C)c1C[C@H](N)C(=O)O; Boc = CC(C)(C)OC(=O)*

Holding throughout (format): physicochemical
Data set [1] can be described thus: Approximate solubility assessment (solvent addition technique). The note with it: dichloromethane, 35° C. for dichloromethane, read-out: Approximate Solubility (50° C.).
Assay in data set [2]: as above
How it is done: Approximate Solubility Assessment of Boc-D-Arg-DMT-Lys(Boc)-Phe-NH2
The solubility screen was carried out as follows: • Approximately 20 mg of Boc-D-Arg-DMT-Lys(Boc)-Phe-NH2 was weighed out into each vial. • Each solvent/solvent mixture was added to the appropriate vial in 5 volume aliquots (100 μL). • In between additions, the sample was stirred at 50° C.
The solubility assessment was estimated by a solvent addition technique, heating at 50° C. between aliquots (see Table 9).

Data set [3] is described as follows: Gravimetric vapour sorption (GVS), hygroscopicity. How it is done:
Gravimetric Vapour Sorption (GVS)
Approximately 15 mg of sample was placed into a mesh vapour sorption balance pan and loaded into an IGASorp Moisture Sorption Analyser balance by Hiden Analytical. The sample was subjected to a ramping profile from 40-90% relative humidity (RH) at 10% increments, maintaining the sample at each step until a stable weight had been achieved (98% step completion). After completion of the sorption cycle, the sample was dried using the same procedure to 0% RH, then subjected to a second ramping profile from 0-90% relative humidity. After completion of the second sorption cycle, the sample was dried using the same procedure to 0% RH, and finally taken back to the starting point of 40% RH. The weight change during the sorption/desorption cycles were plotted, allowing for the hygroscopic nature of the sample to be determined.

Turning to `Cc1cc(O)cc(C)c1C[C@H](NC(=O)[C@@H](CCCNC(=N)N)NC(=O)OC(C)(C)C)C(=O)N[C@@H](CCCCNC(=O)OC(C)(C)C)C(=O)N[C@@H](Cc1ccccc1)C(N)=O` [Boc-D-Arg-DMT-Lys(Boc)-Phe-NH2] (Boc-[dR][Dmt]K(Boc)F-NH2), the solubility was less than 10 mg/mL in data set [1]; 17 mg/mL (≈ 20.2 mM) in data set [2] (2-butanol, solvent 2-Butanol, 50° C., read-out: Approximate Solubility (50° C.)); 14 mg/mL (≈ 16.7 mM) in data set [2] (2-propanol, solvent 2-Propanol, 50° C., read-out: Approximate Solubility (50° C.)); approximately 100 mg/mL (≈ 119 mM) in data set [2] (2-propanol:water (50:50% v/v), solvent 2-propanol:water (50:50% v/v), 50° C., read-out: Approximate Solubility (50° C.)); not below 200 mg/mL in data set [2] (DMSO:acetone (50:50% v/v), solvent DMSO:acetone (50:50% v/v), 50° C., read-out: Approximate Solubility (50° C.)); 24 mg/mL (≈ 28.6 mM) in data set [2] (DMSO:water (50:50% v/v), solvent DMSO:water (50:50% v/v), 50° C., read-out: Approximate Solubility (50° C.)). Further, the solubility in data set [2] (acetone, solvent Acetone, 50° C., read-out: Approximate Solubility (50° C.)) is less than 10 mg/mL; in data set [2] (acetone:water (50:50% v/v), solvent Acetone:water (50:50% v/v), 50° C., read-out: Approximate Solubility (50° C.)), 58 mg/mL (≈ 69 mM); in data set [2] (acetonitrile, solvent Acetonitrile, 50° C., read-out: Approximate Solubility (50° C.)), less than 10 mg/mL; in data set [2] (acetonitrile:water (50:50% v/v), solvent Acetonitrile:water (50:50% v/v), 50° C., read-out: Approximate Solubility (50° C.)) it was not below 200 mg/mL; in data set [2] (all other solvent systems: acetone, dichloromethane, 2-butanol, 2-propanol, methyl ethyl ketone, toluene, THF, ethyl acetate, acetonitrile, read-out: Poor solubility), not above 17 mg/mL; in data set [2] (ethanol, solvent Ethanol, 50° C., read-out: Approximate Solubility (50° C.)) it was approximately 140 mg/mL (≈ 167 mM). In addition, the solubility in data set [2] (ethanol:water (50:50% v/v), solvent Ethanol:water (50:50% v/v), 50° C., read-out: Approximate Solubility (50° C.)) is approximately 100 mg/mL (≈ 119 mM); in data set [2] (ethyl acetate, solvent Ethyl acetate, 50° C., read-out: Approximate Solubility (50° C.)), less than 10 mg/mL; in data set [2] (in acetone:water (50:50 v/v), methanol:water (50:50 v/v) and DMSO:water (50:50 v/v), 50° C.), 58 to 24 mg/mL; in data set [2] (methanol, solvent Methanol, 50° C., read-out: Approximate Solubility (50° C.)), not below 200 mg/mL; in data set [2] (methanol:water (50:50% v/v), solvent Methanol:water (50:50% v/v), 50° C., read-out: Approximate Solubility (50° C.)), 45 mg/mL (≈ 53.6 mM); in data set [2] (methyl ethyl ketone, solvent Methyl ethyl ketone, 50° C., read-out: Approximate Solubility (50° C.)) it was less than 10 mg/mL. Also, the solubility was less than 10 mg/mL in data set [2] (tetrahydrofuran, solvent Tetrahydrofuran, 50° C., read-out: Approximate Solubility (50° C.)); less than 10 mg/mL in data set [2] (toluene, solvent Toluene, 50° C., read-out: Approximate Solubility (50° C.)); not below 200 mg/mL in data set [2] (trifluoroethanol, solvent Trifluoroethanol, 50° C., read-out: Approximate Solubility (50° C.)). For the same compound, the “Mass increase by GVS” value in data set [3] (between 40-90% RH, received, predominantly amorphous material) is given as “ca. 10%”. Also, in data set [3] (crystallized material compared with the amorphous input), the Hygroscopicity after crystallization result was “did not show an improvement in terms of hygroscopicity”. In addition, in data set [3] (received, predominantly amorphous material), the “Hygroscopicity by GVS analysis” value is “highly hygroscopic”.

As usually defined, the solubility is the concentration that dissolves in the medium under given conditions.
